According to PubChem BioAssay (NCI):
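Five concentrations, 48 hours, 96-well plates. GI50 is the concentration that inhibits growth by half. TGI: total growth inhibition.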

Experiments:
Test in all cases: NCI anticancer screen, dose series, 48 h
MCF7 breast = system: MCF7 breast
NCI/ADR-RES ovarian = system: NCI/ADR-RES ovarian
PC-3 prostate = system: PC-3 prostate
MDA-MB-435 = system: MDA-MB-435
786-0 renal = system: 786-0 renal
SNB-75 CNS = system: SNB-75 CNS
SK-MEL-2 melanoma = system: SK-MEL-2 melanoma
RPMI-8226 leukemia = system: RPMI-8226 leukemia
SF-539 CNS = system: SF-539 CNS
HL-60(TB) leukemia = system: HL-60(TB) leukemia

SMILES	GI50 (MCF7 breast)	TGI (MCF7 breast)	GI50 (NCI/ADR-RES ovarian)	TGI (NCI/ADR-RES ovarian)	GI50 (PC-3 prostate)	TGI (PC-3 prostate)	GI50 (MDA-MB-435)	TGI (MDA-MB-435)	GI50 (786-0 renal)	TGI (786-0 renal)	GI50 (SNB-75 CNS)	TGI (SNB-75 CNS)	GI50 (SK-MEL-2 melanoma)	TGI (SK-MEL-2 melanoma)	GI50 (RPMI-8226 leukemia)	TGI (RPMI-8226 leukemia)	TGI (SF-539 CNS)	TGI (HL-60(TB) leukemia)	GI50 (SF-539 CNS)	GI50 (HL-60(TB) leukemia)
Cc1cccc2c1ccc1c3occ(C)c3c(=O)oc21	23.4 µM	> 100 µM	> 100 µM	> 100 µM	> 100 µM	> 100 µM	> 100 µM	> 100 µM	> 100 µM	> 100 µM	45.7 µM	> 100 µM	> 100 µM	> 100 µM	> 100 µM	> 100 µM				
COC(=O)C(C(=O)C(=O)Nc1ccc([N+](=O)[O-])cc1)c1nc2cc(C)c(C)cc2[nH]c1=O (stereo not drawn)										> 100 µM		> 100 µM				> 100 µM	> 100 µM	> 100 µM		
CC(C)N(C(=O)C12C3C4C5C3C1(C#N)C5C42)C(C)C (stereo not drawn)										> 100 µM		> 100 µM		> 100 µM		> 100 µM	> 100 µM	> 100 µM		
CNc1ccc(C(=O)CC(O)CCC(C)C2OC(=O)CC(O)CC(=O)CC(O)CC(O)CC(O)CC(O)CC3(O)CC(O)C(C(=O)NCCc4ccccn4)C(CC(OC4OC(C)C(O)C(N)C4O)/C=C/C=C/C=C/C=C\C=C/C=C/C=C/C2C)O3)cc1 (stereo not drawn)	1.25 µM	10.4 µM			0.336 µM	> 11.6 µM	0.128 µM	0.406 µM	0.118 µM	0.361 µM	> 50 µM	> 50 µM		> 50 µM	0.823 µM	> 50 µM	> 50 µM	30.2 µM	2.73 µM	5.01 µM
O=C(NCCCCCCNC(=O)NC1OCC(O)C(O)C1O)NC1OCC(O)C(O)C1O (stereo not drawn)										> 100 µM		> 100 µM		> 100 µM		> 100 µM	> 100 µM	> 100 µM		
Cc1[nH]c2ccccc2c1C1=CC(=O)C=CC1=O	9.9 µM	28.8 µM	10.9 µM	28.4 µM	12.7 µM	30 µM	5.04 µM	23.5 µM	20.1 µM	43.3 µM	9.19 µM	34.7 µM	12.3 µM	28.9 µM	11 µM	38.2 µM	28.3 µM		14.3 µM	
CN1CCc2cc(O)c3cc2C1Cc1ccc(cc1)Oc1cc(ccc1O)CC1c2c(cc4c(c2O3)OCO4)CCN1C (stereo not drawn)										> 100 µM		39.4 µM		34.2 µM			32.6 µM	38.8 µM		
CC(=O)OCc1c(C)c2ccccc2n1C(C)=O										> 100 µM		> 100 µM		43.3 µM			> 100 µM	66.9 µM		
COc1cc([N+](=O)[O-])c(OC)cc1-c1nc2n(c1/C(N)=N/C(=N)N)CCS2	> 100 µM	> 100 µM	> 100 µM	> 100 µM	> 100 µM	> 100 µM	> 100 µM	> 100 µM	25.1 µM	> 100 µM	6.76 µM	> 100 µM			> 100 µM	> 100 µM	> 100 µM	> 100 µM	26.2 µM	> 100 µM
COc1cc2c3c(c1OCc1ccccc1)NCCC3NCC2 (stereo not drawn)										> 100 µM		> 100 µM				> 100 µM	> 100 µM	> 100 µM		
Cc1ccc(S(=O)(=O)NC(=O)C#CCOC2CCCCO2)cc1 (stereo not drawn)										> 100 µM		> 100 µM		> 100 µM		> 100 µM	> 100 µM	> 100 µM		
CCOC(=O)NN(C(=O)OCC)C(C(=O)c1ccc(Cl)cc1)=C1NCCN1										> 100 µM		> 100 µM		> 100 µM			> 100 µM	> 100 µM		
CNC(=O)OCc1cc2ccncc2c2c1[nH]c1ccccc12										> 100 µM		> 80.3 µM		> 100 µM		> 100 µM	> 100 µM	> 100 µM		
O=C(O)C1CCCCC1C(=O)Nc1nc2ccccc2[nH]1 (stereo not drawn)		> 100 µM		> 100 µM		> 100 µM		> 100 µM		> 100 µM		> 100 µM		> 100 µM		> 100 µM	> 100 µM			
CS(=O)(=O)c1ccc(-c2[nH]c3ccc(F)cc3c2/C=N/NC(N)=S)cc1	2.1 µM	18.7 µM	1.17 µM	> 100 µM	0.51 µM	26.8 µM			0.605 µM	> 100 µM	1.85 µM	> 100 µM	10.6 µM	> 100 µM	0.475 µM	6.64 µM	> 100 µM	5.05 µM	1.3 µM	0.396 µM
COc1cc(CCNc2nc3cc(N)cc(N)c3nc2-c2ccccc2)cc(OC)c1	1.71 µM	3.89 µM	2.61 µM	6.3 µM			1.77 µM	3.5 µM	2 µM	3.99 µM	1.37 µM	2.85 µM	1.92 µM	3.92 µM			4.14 µM	3.33 µM	2.19 µM	1.25 µM
N#C/C(=C\c1ccc([N+](=O)[O-])s1)c1nc2cc(Br)ccc2s1	0.305 µM		0.276 µM	0.827 µM	0.435 µM	2.54 µM			2.68 µM	> 100 µM	0.355 µM		0.236 µM	0.672 µM	0.246 µM	0.856 µM	0.638 µM	> 100 µM	0.236 µM	3.82 µM
Cc1cc2c(=O)c3ccccc3oc2c(C#N)c1C		> 100 µM		> 100 µM		> 100 µM				> 100 µM		> 100 µM				> 100 µM		> 100 µM		
N#CC(C#N)=Cc1ccc(Oc2ccccc2)cc1										33 µM		> 91.7 µM		> 55.7 µM		57.3 µM	40.4 µM	55.1 µM		
O=C1CCCC(=O)C1C(=O)c1ccc(C(F)(F)F)cc1[N+](=O)[O-]	> 100 µM	> 100 µM	> 100 µM	> 100 µM	> 100 µM	> 100 µM	> 100 µM	> 100 µM	> 100 µM	> 100 µM	> 100 µM	> 100 µM			> 100 µM	> 100 µM	> 100 µM	> 100 µM	> 100 µM	> 100 µM
